Test results published in patent US20260108465A1 (Belhaven BioPharma Inc., priority 2024, published 2026).
Where two headings read alike, the source gives them in different places.

Details: human, in vivo; for mean AUC0-363: im

time of the second IM Cmax after dosing: approximately 45 minutes
mean AUC0-363 (0.3 mg): 18790 pg·min/mL
mean AUC0-363 (0.5 mg): 35890 pg·min/mL
Structure (SMILES): CNC[C@H](O)c1ccc(O)c(O)c1 [Epinephrine IM, epinephrine]
